From paper PMC5722318, “Absence of anti-hypocretin receptor 2 autoantibodies in post pandemrix narcolepsy cases” (PLoS ONE, 2017) come the findings set out here.

Read-outs that look alike come from different tables or passages of the source.

This assay concerns DQ0602. The assay is classed as binding, human. Particulars: for % Read #1 / Read #1: replicate 1; for % Average: mean of two reads; for % Read #2 / Read #2: replicate 2; for Average: mean of the two raw reads; for Read #1 / Read #2: raw signal read.
The mark [1] stands for this setting: % of Bio-EBV binding, first assay (02/04/2016, 07/15/2016 or 08/11/2016, by peptide).
Where [2] appears, read: % of Bio-EBV binding, repeat assay (07/19/2016, 07/18/2016 or 08/12/2016, by peptide).
[3] abbreviates: first assay (02/04/2016, 07/15/2016 or 08/11/2016, by peptide).
Setting [4] is: repeat assay (07/19/2016, 07/18/2016 or 08/12/2016, by peptide).

For “HDSNKGVTAACPH [HA143-155 146N, synthetic 13-mer hemagglutinin peptide containing wild-type 146N]”, the “Average (two assays)” value is reported as 43.7826%. The “mean of Bio-EBV epitope binding ± SD” value (40 μM competitor peptide, 25 nM DQ0602, 100 nM HLA-DM, 1 μM Bio-EBV, acetate pH 4.6, 3 days at 37°C, duplicate, Eu-streptavidin TRF, lower percentage = stronger competitor) is 43.78% ± 1.34%. Moreover, the “% Read #1” value (% of Bio-EBV binding (Bio-EBV average = 100), first assay (02/04/2016, 07/15/2016 or 08/11/2016, by peptide)) amounted to 41.1935%. Under setting [1], the “% Average” value was found to be 42.8329% and the “% Read #2” value is reported as 44.4722%. Moreover, under setting [2], the “% Average” value is on record as 44.7324%, the “% Read #1” value is reported as 43.7047% and the “% Read #2” value worked out at 45.7602%. Moreover, under setting [3], the Average is recorded as 8060.5 and the “Read #2” value is reported as 8369. Besides, under setting [4], the Average is recorded as 7464.5, the “Read #1” value is recorded as 7293 and the “Read #2” value turned out to be 7636. Also, the “Read #1” value (first assay (02/04/2016, 07/15/2016 or 08/11/2016, by peptide), competition against Bio-EBV epitope) was 7752.
In the case of YDDEEFLRYLWR [HCRTR2_34-45], the “binding to DQ0602 (in words)” value (competition with Bio-EBV epitope, 40 μM peptide, […]) is on record as “did not appear to bind to DQ0602”.
